Earlier results, collected in patent US6676926B2, “Radiopharmaceuticals for diagnosing Alzheimer's disease” (Schering Aktiengesellschaft, priority 2000, dated 2004).

How the values were obtained:
[1] = normal mice
synthetic-amyloid = conditions: in vitro

With `O=C(O)c1cc(/N=N/c2ccc(-c3ccc(/N=N/c4ccc(O)c(C(=O)O)c4)cc3)cc2)ccc1O` [Chrysamine G] as the compound, how does the blood-brain barrier passage [1] read?
The blood-brain barrier passage was “crosses the blood-brain barrier”.

What about the “binding to synthetic amyloid” value (synthetic-amyloid) of the same compound?
Its value is “binds synthetic-amyloid well”.
